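Method: 48-hour compound exposure of cells in 96-well plates, five concentrations, linear interpolation of endpoints. GI50 = concentration required for 50% inhibition of growth.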 Activity calls are given as the source filed them. Cut-off read from the data, not from the text of the source: active = GI50 up to about 1.1 µM and inactive = higher.
How the values were obtained:
Experiment in all cases: NCI anticancer screen, dose series, 48 h
[1] = system: A549
[2] = system: ACHN
[3] = system: CCRF-CEM
[4] = system: HL-60
[5] = system: HT-29
[6] = system: K562
[7] = system: LOX IMVI
[8] = system: M14
[9] = system: MDA-MB-435
[10] = system: MDA-N
[11] = system: NCI-H23
[12] = system: NCI-H460
[13] = system: NCI/ADR-RES
[14] = system: PC-3
[15] = system: RPMI-8226
[16] = system: SK-MEL-2
[17] = system: SNB-19
[18] = system: SNB-75
[19] = system: SW-620
[20] = system: U-251

In the case of `Cn1c(=O)c2nc(CCCCc3nc4ccccc4[nH]3)[nH]c2n(C)c1=O`, the GI50 [1] is reported as > 100 µM (inactive), the GI50 [2] is reported as > 100 µM (inactive) and the GI50 [3] is reported as > 100 µM (inactive). The GI50 [4] was > 100 µM (inactive), the GI50 [5] was > 100 µM (inactive) and the GI50 [6] was > 100 µM (inactive). For the same compound, the GI50 [7] was > 100 µM (inactive), the GI50 [8] was > 100 µM (inactive) and the GI50 [9] was > 100 µM (inactive). For the same compound, the GI50 [10] was > 100 µM (inactive), the GI50 [11] was > 100 µM (inactive) and the GI50 [12] was > 100 µM (inactive). For the same compound, the GI50 [13] was > 100 µM (inactive), the GI50 [14] was > 100 µM (inactive) and the GI50 [15] was > 100 µM (inactive). The GI50 [16] was > 100 µM (inactive), the GI50 [17] was > 100 µM (inactive) and the GI50 [18] was 30.1 µM (inactive). For the same compound, the GI50 [19] was > 100 µM (inactive) and the GI50 [20] was > 100 µM (inactive).

With `CN(C)CCn1c(=O)c2ccc(NCCCN(C)CCCNc3ccc4c(=O)n(CCN(C)C)c(=O)n5c6ccc(O)cc6c(=O)c3c45)c3c(=O)c4cc(O)ccc4n(c1=O)c23` the GI50 [1] was < 0.01 µM (active), the GI50 [2] was < 0.01 µM (active) and the GI50 [3] was < 0.01 µM (active). For the same compound, the GI50 [4] was 0.0342 µM (active), the GI50 [5] was < 0.01 µM (active) and the GI50 [6] was < 0.01 µM (active). For the same compound, the GI50 [7] was < 0.01 µM (active), the GI50 [8] was 0.147 µM (active) and the GI50 [9] was < 0.01 µM (active). For the same compound, the GI50 [10] was < 0.0337 µM (active), the GI50 [11] was < 0.01 µM (active) and the GI50 [12] was < 0.01 µM (active). The GI50 [13] was 0.181 µM (active), the GI50 [14] was < 0.01 µM (active) and the GI50 [15] was < 0.01 µM (active). For the same compound, the GI50 [16] was 0.0335 µM (active), the GI50 [17] was < 0.01 µM (active) and the GI50 [18] was < 0.01 µM (active). The GI50 [19] was < 0.01 µM (active) and the GI50 [20] was < 0.01 µM (active).

With `Cc1cc(O)c2c(c1)C(C1c3cccc(O)c3C(=O)c3c(O)cc(C)cc31)c1cccc(O)c1C2=O` (centres undefined) the GI50 [1] was 0.239 µM (active), the GI50 [2] was 0.337 µM (active) and the GI50 [3] was 0.906 µM (active). For the same compound, the GI50 [4] was 0.879 µM (active), the GI50 [5] was 0.378 µM (active) and the GI50 [6] was 1.02 µM (active). The GI50 [7] was 0.354 µM (active), the GI50 [8] was 0.327 µM (active) and the GI50 [9] was 0.34 µM (active). For the same compound, the GI50 [10] was 0.705 µM (active), the GI50 [11] was 0.37 µM (active) and the GI50 [12] was 0.198 µM (active). For the same compound, the GI50 [13] was 0.319 µM (active), the GI50 [14] was 0.105 µM (active) and the GI50 [15] was 0.158 µM (active). For the same compound, the GI50 [16] was 0.294 µM (active), the GI50 [17] was 0.239 µM (active) and the GI50 [18] was 0.243 µM (active). For the same compound, the GI50 [19] was 0.448 µM (active) and the GI50 [20] was 0.31 µM (active).

`CN(C)/C=N/NC(=O)/C(C#N)=C/N(C)C` was tested, and the GI50 [1] was > 100 µM (inactive), the GI50 [2] was > 100 µM (inactive) and the GI50 [3] was > 100 µM (inactive). The GI50 [4] was > 100 µM (inactive), the GI50 [5] was > 100 µM (inactive) and the GI50 [6] was > 100 µM (inactive). The GI50 [7] was > 100 µM (inactive), the GI50 [8] was > 100 µM (inactive) and the GI50 [9] was > 100 µM (inactive). For the same compound, the GI50 [10] was > 100 µM (inactive), the GI50 [11] was > 100 µM (inactive) and the GI50 [12] was > 100 µM (inactive). For the same compound, the GI50 [13] was > 100 µM (inactive), the GI50 [14] was > 100 µM (inactive) and the GI50 [15] was > 100 µM (inactive). The GI50 [16] was > 100 µM (inactive), the GI50 [17] was > 100 µM (inactive) and the GI50 [18] was > 100 µM (inactive). The GI50 [19] was > 100 µM (inactive) and the GI50 [20] was > 100 µM (inactive).

With `CC(=O)O[C@H]1C(=O)[C@@]2(C)[C@H]([C@H](OC(=O)c3ccccc3)[C@]3(O)C[C@H](OC(=O)[C@H](O)[C@@H](NC(=O)c4ccccc4)c4cccc(N(C)C)c4)C(C)=C1C3(C)C)[C@]1(OC(C)=O)CO[C@@H]1C[C@@H]2O` the GI50 [1] was 0.314 µM (active), the GI50 [2] was 0.7 µM (active) and the GI50 [3] was 0.0215 µM (active). For the same compound, the GI50 [4] was 0.0122 µM (active), the GI50 [5] was 0.0219 µM (active) and the GI50 [6] was 0.0324 µM (active). The GI50 [7] was 0.036 µM (active), the GI50 [8] was 0.098 µM (active) and the GI50 [9] was 0.00893 µM (active). For the same compound, the GI50 [10] was 0.00766 µM (active), the GI50 [11] was 0.0755 µM (active) and the GI50 [12] was 0.0419 µM (active). For the same compound, the GI50 [13] was > 28.2 µM (inactive), the GI50 [14] was 0.209 µM (active) and the GI50 [15] was 0.00968 µM (active). The GI50 [16] was 0.0301 µM (active), the GI50 [17] was 0.148 µM (active) and the GI50 [18] was 1.01 µM (active). For the same compound, the GI50 [19] was 0.0409 µM (active) and the GI50 [20] was 0.0608 µM (active).

With `O=c1c2ccccc2sc2cccc(NCCCN3CCN(CCCNc4cccc5sc6ccccc6c(=O)c45)CC3)c12` the GI50 [1] was > 100 µM (inactive), the GI50 [2] was > 100 µM (inactive) and the GI50 [3] was > 100 µM (inactive). For the same compound, the GI50 [4] was > 100 µM (inactive), the GI50 [5] was > 100 µM (inactive) and the GI50 [6] was > 100 µM (inactive). The GI50 [7] was > 100 µM (inactive), the GI50 [8] was > 100 µM (inactive) and the GI50 [9] was > 100 µM (inactive). The GI50 [10] was > 100 µM (inactive), the GI50 [11] was > 100 µM (inactive) and the GI50 [12] was > 100 µM (inactive). The GI50 [13] was > 100 µM (inactive), the GI50 [14] was 85.1 µM (inactive) and the GI50 [15] was > 100 µM (inactive). For the same compound, the GI50 [16] was > 100 µM (inactive), the GI50 [17] was > 100 µM (inactive) and the GI50 [18] was 19.5 µM (inactive). For the same compound, the GI50 [19] was > 100 µM (inactive) and the GI50 [20] was > 100 µM (inactive).

For `Cn1c2c(c3ccccc31)CCN1C(=O)CCC21` (centres undefined), the GI50 [2] was > 10 µM (inactive), the GI50 [3] was > 10 µM (inactive) and the GI50 [4] was > 10 µM (inactive). For the same compound, the GI50 [5] was > 10 µM (inactive), the GI50 [6] was > 10 µM (inactive) and the GI50 [7] was > 10 µM (inactive). The GI50 [8] was > 10 µM (inactive), the GI50 [9] was > 10 µM (inactive) and the GI50 [10] was > 10 µM (inactive). The GI50 [11] was > 10 µM (inactive), the GI50 [12] was > 10 µM (inactive) and the GI50 [13] was > 10 µM (inactive). For the same compound, the GI50 [14] was > 10 µM (inactive), the GI50 [15] was > 10 µM (inactive) and the GI50 [16] was > 10 µM (inactive). For the same compound, the GI50 [17] was > 10 µM (inactive), the GI50 [18] was > 10 µM (inactive) and the GI50 [19] was > 10 µM (inactive). For the same compound, the GI50 [20] was > 10 µM (inactive).
